Data published in patent publication US9090584B2, “Therapeutic agents for treatment of ocular hypertension” (Allergan, Inc., priority 2010, dated 2015).
Like-named read-outs stand apart in the source and are kept apart here.

Key:
[1] = tested on: laser-induced hypertensive monkeys; conditions: 0.05%, one single day dose, maximum at 6 h
Description: (§1) U.S. Pat. No. 7,091,231 describes the methods used for these in vivo tests.
(§2) Isopropyl 5-(2-(3′,4-difluoro-[1,1′-biphenyl]-3-ylcarboxamido)ethyl)thiophene-2-carboxylate was tested in normotensive dogs at 0.05%, dosing once daily for 5 days. […] This compound was also tested in laser-induced hypertensive monkeys, using one single day dose.
(§3) 2-Hydroxyethyl 5-(2-(3′,4-difluoro-[1,1′-biphenyl]-3-ylcarboxamido)ethyl)thiophene-2-carboxylate was tested in normotensive dogs at 0.05%, dosing once daily for 5 days. […] This compound was also tested in laser-induced hypertensive monkeys, using one single day dose.

[2] = tested on: normotensive dogs; conditions: 0.05%, once daily for 5 days
Description: as §1, §2, §3

[3] = target: T1, EP4 (Homo sapiens, UniProt P35408); experiment: EP4 flipr functional assay; type: cell-based
Description: (§4) Data from running binding and activity studies on the compounds of the invention were carried out as described in U.S. Pat. No. 7,427,685, the contents of which are incorporated herein by reference.

[4] = target: T2, hEP3A (Homo sapiens, UniProt P43115); experiment: Other receptors functional assay, hEP3A; type: cell-based
T2 sequence (P43115 1-390): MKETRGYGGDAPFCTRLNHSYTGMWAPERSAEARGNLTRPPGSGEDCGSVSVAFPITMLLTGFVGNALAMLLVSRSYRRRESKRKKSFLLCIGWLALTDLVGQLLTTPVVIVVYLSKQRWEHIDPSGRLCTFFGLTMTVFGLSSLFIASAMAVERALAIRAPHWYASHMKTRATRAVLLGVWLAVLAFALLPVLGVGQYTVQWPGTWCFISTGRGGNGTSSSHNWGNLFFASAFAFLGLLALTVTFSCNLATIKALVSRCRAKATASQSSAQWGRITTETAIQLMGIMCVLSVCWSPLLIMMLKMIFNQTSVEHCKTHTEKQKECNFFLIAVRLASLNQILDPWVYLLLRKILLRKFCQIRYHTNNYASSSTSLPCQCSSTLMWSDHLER
Description: as §4

[5] = target: T3, EP2 (Homo sapiens, UniProt P43116); experiment: EP2 binding
Description: as §4

[6] = target: T3, EP2; experiment: EP2 flipr functional assay; type: cell-based
Description: as §4

[7] = target: T3, EP2; experiment: EP2 cAMP assay; type: cell-based
Description: as §4

[8] = target: T1, EP4; experiment: EP4 binding
Description: as §4

T1 sequence (P35408 whole entry): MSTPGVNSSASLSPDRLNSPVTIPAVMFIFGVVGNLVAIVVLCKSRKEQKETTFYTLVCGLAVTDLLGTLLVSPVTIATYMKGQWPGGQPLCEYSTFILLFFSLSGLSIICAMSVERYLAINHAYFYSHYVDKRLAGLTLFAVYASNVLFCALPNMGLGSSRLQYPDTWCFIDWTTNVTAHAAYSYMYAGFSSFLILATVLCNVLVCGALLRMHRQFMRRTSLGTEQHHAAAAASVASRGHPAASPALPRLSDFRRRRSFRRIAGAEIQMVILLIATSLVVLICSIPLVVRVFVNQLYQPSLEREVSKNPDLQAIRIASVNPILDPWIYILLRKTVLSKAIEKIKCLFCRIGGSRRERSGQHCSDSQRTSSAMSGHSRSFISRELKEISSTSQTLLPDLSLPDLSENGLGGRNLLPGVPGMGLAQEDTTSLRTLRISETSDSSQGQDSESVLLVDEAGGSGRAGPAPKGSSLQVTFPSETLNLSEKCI
T3 sequence (P43116 whole entry): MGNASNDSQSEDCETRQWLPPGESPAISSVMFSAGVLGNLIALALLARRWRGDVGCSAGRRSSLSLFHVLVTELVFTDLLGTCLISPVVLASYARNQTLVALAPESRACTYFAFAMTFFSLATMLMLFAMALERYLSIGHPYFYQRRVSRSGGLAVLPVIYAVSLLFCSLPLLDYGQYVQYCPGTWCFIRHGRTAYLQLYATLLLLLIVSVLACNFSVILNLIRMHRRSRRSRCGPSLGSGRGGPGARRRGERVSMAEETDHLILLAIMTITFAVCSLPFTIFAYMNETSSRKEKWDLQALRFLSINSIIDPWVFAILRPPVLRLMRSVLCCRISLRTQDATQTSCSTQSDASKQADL

Row | Compound | EC50 [3] [nM] | EC50 [4] [nM] | Ki [5] [nM] | EC50 [6] [nM] | EC50 [7] [nM] | Ki [8] [nM] | maximum IOP decrease from baseline [1] [mmHg] | maximum IOP decrease from baseline (percent) [1] [%] | maximum intraocular pressure (IOP) decrease from baseline ([2]; maximum at 52 h) [mmHg] | maximum intraocular pressure (IOP) decrease from baseline (percent) ([2]; maximum at 52 h) [%] | maximum ocular surface hyperemia (OSH) score ([2]; maximum at 54 h) | maximum ocular surface hyperemia (OSH) score ([2]; maximum at 28 h) | maximum intraocular pressure (IOP) decrease from baseline ([2]; maximum at 78 h) [mmHg] | maximum intraocular pressure (IOP) decrease from baseline (percent) ([2]; maximum at 78 h) [%]
1 | O=C(OCCO)c1ccc(CCNC(=O)c2cc(-c3cccc(F)c3)ccc2F)s1 [2-Hydroxyethyl 5-(2-(3′,4-difluoro-[1,1′-biphenyl]-3-ylcarboxamido)ethyl)thiophene-2-carboxylate] | – | – | – | – | – | – | 13.1 | 31 | 6.6 | 50 | 1.6 | – | – | –
2 | O=C(O)c1ccc(CCNC(=O)c2cc(-c3cccc(F)c3)ccc2F)s1 [Compound 1, 5-(2-(3′,4-Difluoro-[1,1′-biphenyl]-3-ylcarboxamido)ethyl)thiophene-2-carboxylic acid] | 5140 | 8900 | 63 | 49 | 2 | 648 | – | – | – | – | – | – | – | –
3 | O=C(O)c1ccc(CNC(=O)c2cc(-c3cccc(F)c3)ccc2F)s1 [Compound 2, 5-((3′,4-Difluoro-[1,1′-biphenyl]-3-ylcarboxamido)methyl)thiophene-2-carboxylic acid] | > 10000 | – | 631 | > 10000 | > 10000 | 845 | – | – | – | – | – | – | – | –
4 | O=C(O)c1ccc(CCCNC(=O)c2cc(-c3cccc(F)c3)ccc2F)s1 [Compound 3, 5-(3-(3′,4-Difluoro-[1,1′-biphenyl]-3-ylcarboxamido)propyl)thiophene-2-carboxylic acid] | > 10000 | 3290 | 177 | 31 | 5 | 1480 | – | – | – | – | – | – | – | –
5 | CC(C)OC(=O)c1ccc(CCNC(=O)c2cc(-c3cccc(F)c3)ccc2F)s1 [Isopropyl 5-(2-(3′,4-difluoro-[1,1′-biphenyl]-3-ylcarboxamido)ethyl)thiophene-2-carboxylate] | – | – | – | – | – | – | 6.9 | 19 | – | – | – | 0.8 | 5.2 | 32

Now from value to compound, other results behind:

Row | EC50 [3] [nM] | EC50 [4] [nM] | Ki [5] [nM] | EC50 [6] [nM] | EC50 [7] [nM] | Ki [8] [nM] | Compound | maximum IOP decrease from baseline [1] [mmHg] | maximum IOP decrease from baseline (percent) [1] [%] | maximum intraocular pressure (IOP) decrease from baseline ([2]; maximum at 52 h) [mmHg] | maximum intraocular pressure (IOP) decrease from baseline (percent) ([2]; maximum at 52 h) [%] | maximum ocular surface hyperemia (OSH) score ([2]; maximum at 54 h) | maximum ocular surface hyperemia (OSH) score ([2]; maximum at 28 h) | maximum intraocular pressure (IOP) decrease from baseline ([2]; maximum at 78 h) [mmHg] | maximum intraocular pressure (IOP) decrease from baseline (percent) ([2]; maximum at 78 h) [%]
6 | > 10000 | – | 6880 | > 10000 | > 10000 | 8640 | O=C(O)c1ccc(CCCCNC(=O)c2cc(-c3cccc(F)c3)ccc2F)s1 [Compound 4, 5-(4-(3′,4-Difluoro-[1,1′-biphenyl]-3-ylcarboxamido)butyl)thiophene-2-carboxylic acid] | – | – | – | – | – | – | – | –
7 | 6020 | > 10000 | 150 | 26 | 8 | 739 | O=C(NCCc1ccc(C(=O)O)s1)c1cccc(-c2cccc(F)c2)c1 [Compound 5, 5-(2-(3′-Fluoro-[1,1′-biphenyl]-3-ylcarboxamido)ethyl)thiophene-2-carboxylic acid] | – | – | – | – | – | – | – | –
8 | 4440 | 4810 | 122 | 11 | 4 | 750 | O=C(NCCc1ccc(C(=O)O)s1)c1cc(F)cc(-c2cccc(F)c2)c1 [Compound 6, 5-(2-(3′,5-Difluoro-[1,1′-biphenyl]-3-ylcarboxamido)ethyl)thiophene-2-carboxylic acid] | – | – | – | – | – | – | – | –
9 | > 10000 | 1420 | 126 | 37 | 5 | 814 | O=C(NCCCc1ccc(C(=O)O)s1)c1cc(F)cc(-c2cccc(F)c2)c1 [Compound 7, 5-(3-(3′,5-Difluoro-[1,1′-biphenyl]-3-ylcarboxamido)propyl)thiophene-2-carboxylic acid] | – | – | – | – | – | – | – | –
